Results reported in US20180252712A1, “RECEPTOR FOR NOROVIRUS AND USES THEREOF” (priority 2017, published 2018).

Experiments:
MNoV^CW3 = experiment: CRISPR screen in BV2-Cas9 cells, sgRNA enrichment after MNoV^CW3 infection; type: cell-based, murine norovirus; settings: for log2 fold enrichment after MNV infection relative to mock infected cells, CW3 MOI 0.05: MNoV^CW3, MOI 0.05, ten days post-infection; for log2 fold enrichment after MNV infection relative to mock infected cells, CW3 MOI 5: MNoV^CW3, MOI 5, ten days post-infection
Description: (§1) BV2 cells were transduced with pXPR_101 (Addgene plasmid 52962) and selected with blasticidin for eleven days. Cas9 activity was assessed by transducing parental BV2 or BV2-Cas9 cells with pXPR_011 (Addgene plasmid 59702), expresses eGFP and a sgRNA targeting eGFP at an MOI<1 [1]. Cells were transduced for 2 days and subsequently, selected for five days with puromycin and the frequency of eGFP expression was assessed by flow cytometry. The mouse ASIAGO sgRNA CRISPR library contains six independent genome wide pools which each pool containing a unique sgRNA targeting each of 20,077 mouse genes. Four ASIAGO pools were independently used to generate the BV2 library (Doench et al submitted). Each ASIAGO pool was delivered by lentiviral transduction of 5×10^7 BV2 cells at an MOI ˜0.2. This equates to 1×10^7 transduced cells, which is sufficient for the integration of each sgRNA 500 independent times. Two days post transduction, puromycin was added to the media and transduced cells were selected for five days. For each experimental condition, 1×10^7 BV2-Cas9 cells containing sgRNAs were seeded in a T175 tissue culture flask. Cells were infected with either MNoV^CW3 or MNoV^CR6 at MOls of 0.05 and 5. Mock infected cells were harvested 48 hrs after seeding and served as a reference for sgRNA enrichment analysis. Ten days post-infection genomic DNA was isolated from surviving cells using a Qiamp DNA mini kit according to manufacturer instructions (Qiagen).
(§2) Illumina sequencing and STARS analysis was performed as described previously (Doench et al, in press). Briefly, genomic DNA was aliquoted into multiple wells of a 96-well plate with up to 10 μg of DNA in 50 μl total volume. A PCR mastermix consisting of ExTaq DNA polymerase (Clontech), ExTaq buffer, dNTP, P5 stagger primer, and water was generated. 40 μl of PCR master mix, and 10 μl of a barcoded primer was added to each well containing 50 μl of DNA. Samples were PCR amplified as follows: 95° C. for 1 min., followed by 28 cycles of 94° C. for 30 sec., 52.5° C. for 30 sec., 72° C. for 30 sec. with a final 10 min. at 72° C. PCR product was purified with Agencourt AMPure XP SPRI beads according to the manufacture's protocol (Beckman Coluter). Samples were sequenced on an Illumina HiSeq 2000. Barcodes in the P7 primer were deconvuluted and the sgRNA sequence was mapped to a reference file of sgRNAs in the ASIAGO library. To normalize for different numbers of reads per condition, read counts per sgRNA were normalized to 10^7 total reads per sample. This normalized value was then log-2 transformed. sgRNAs that were not sequenced were arbitrarily assigned a read count of 1. sgRNA frequencies were then analyzed using STARS software, which is available at broadinstitute.org/rnai/public/software/index (Doench et al, in press). STARS computes a score for each gene of rank-ordered sgRNA hits that was above […] of total sequenced sgRNAs. A STAR score was only assigned to genes that scored above this threshold in at least two of four independent genome wide pools.

MNoV^CR6 = experiment: CRISPR screen in BV2-Cas9 cells, sgRNA enrichment after MNoV^CR6 infection; type: cell-based, murine norovirus; settings: for log2 fold enrichment after MNV infection relative to mock infected cells, CR6 MOI 0.05: MNoV^CR6, MOI 0.05, ten days post-infection; for log2 fold enrichment after MNV infection relative to mock infected cells, CR6 MOI 5: MNoV^CR6, MOI 5, ten days post-infection
Description: as §1, §2

Substance	log2 fold enrichment after MNV infection relative to mock infected cells, CW3 MOI 0.05 (MNoV^CW3)	log2 fold enrichment after MNV infection relative to mock infected cells, CW3 MOI 5 (MNoV^CW3)	log2 fold enrichment after MNV infection relative to mock infected cells, CR6 MOI 0.05 (MNoV^CR6)	log2 fold enrichment after MNV infection relative to mock infected cells, CR6 MOI 5 (MNoV^CR6)
ACAGGTCCAGAGGAGGTGAG: sgRNA used in screen, matches CD300ld, CD300lf, CD300lh (listed as DNA, chemistry not given here)	0.0 log2 fold enrichment	13.0 log2 fold enrichment	0.0 log2 fold enrichment	13.1 log2 fold enrichment
ACGGAAGTGAGAAAGAAAAG: sgRNA used in screen, matches CD300le (listed as DNA, chemistry not given here)	−6.6 log2 fold enrichment	−6.6 log2 fold enrichment	−6.6 log2 fold enrichment	−6.6 log2 fold enrichment
CATAGGTCACTGTAAAGGTG: sgRNA used in screen, matches CD300la (listed as DNA, chemistry not given here)	−7.2 log2 fold enrichment	−7.2 log2 fold enrichment	−7.2 log2 fold enrichment	−7.2 log2 fold enrichment
CCTGTGATCCAGAAGAGAAA: sgRNA used in screen, matches CD300lf (listed as DNA, chemistry not given here)	9.6 log2 fold enrichment	9.6 log2 fold enrichment	9.6 log2 fold enrichment	9.6 log2 fold enrichment
CGTAGCCAGACACAGAGCCA: sgRNA used in screen, matches CD300le (listed as DNA, chemistry not given here)	−5.9 log2 fold enrichment	−5.5 log2 fold enrichment	−5.8 log2 fold enrichment	−5.9 log2 fold enrichment
CTACGCAAATCAGGACCAGG: sgRNA used in screen, matches CD300lg (listed as DNA, chemistry not given here)	−6.4 log2 fold enrichment	−6.4 log2 fold enrichment	−6.4 log2 fold enrichment	−6.4 log2 fold enrichment
CTAGCTACTACTCTGATAAC: sgRNA used in screen, matches CD300lf (listed as DNA, chemistry not given here)	0.0 log2 fold enrichment	11.0 log2 fold enrichment	0.0 log2 fold enrichment	9.8 log2 fold enrichment
CTCCACGTAGGTACACCGCA: sgRNA used in screen, matches CD300lg (listed as DNA, chemistry not given here)	−5.8 log2 fold enrichment	−5.3 log2 fold enrichment	−5.6 log2 fold enrichment	−5.8 log2 fold enrichment
GAGTGTGTCATGTCGATATG: sgRNA used in screen, matches CD300la (listed as DNA, chemistry not given here)	−6.2 log2 fold enrichment	−6.2 log2 fold enrichment	−6.2 log2 fold enrichment	−6.2 log2 fold enrichment
GCAGCAAATCCAAATCTCAG: sgRNA used in screen, matches CD300lb (listed as DNA, chemistry not given here)	−5.8 log2 fold enrichment	−5.8 log2 fold enrichment	−5.8 log2 fold enrichment	−5.8 log2 fold enrichment
GCCCTTGCTACTTACCTGGG: sgRNA used in screen, matches CD300ld (listed as DNA, chemistry not given here)	0.0 log2 fold enrichment	−5.5 log2 fold enrichment	0.0 log2 fold enrichment	−5.5 log2 fold enrichment
GCTACTTACCTGGGAGGAAA: sgRNA used in screen, matches CD300lh (listed as DNA, chemistry not given here)	−5.9 log2 fold enrichment	−5.9 log2 fold enrichment	−5.9 log2 fold enrichment	−5.9 log2 fold enrichment
GGAAGAGGATGAGCAGAGCA: sgRNA used in screen, no identical CD300 match marked (listed as DNA, chemistry not given here)	−6.4 log2 fold enrichment	−6.4 log2 fold enrichment	−6.4 log2 fold enrichment	−6.4 log2 fold enrichment
GGATCCAGTCACAGGTCCAG: sgRNA used in screen, matches CD300lf, CD300lh (listed as DNA, chemistry not given here)	0.0 log2 fold enrichment	12.5 log2 fold enrichment	0.0 log2 fold enrichment	12.6 log2 fold enrichment
GGTCGTCCCTGATGGACACA: sgRNA used in screen, matches CD300lh (listed as DNA, chemistry not given here)	12.0 log2 fold enrichment	7.8 log2 fold enrichment	12.0 log2 fold enrichment	11.0 log2 fold enrichment
GTTACTGTGAACATTGGCCC: sgRNA used in screen, matches CD300lf (listed as DNA, chemistry not given here)	0.0 log2 fold enrichment	12.1 log2 fold enrichment	0.0 log2 fold enrichment	12.0 log2 fold enrichment
TACCACGCCACAGGACTCCA: sgRNA used in screen, matches CD300lg (listed as DNA, chemistry not given here)	0.0 log2 fold enrichment	−6.2 log2 fold enrichment	0.0 log2 fold enrichment	−6.2 log2 fold enrichment
